Tests used:
[1] = tested on: cucumber downy mildew; test: Protectant activity in vivo (whole plant), cucumber downy mildew; settings: for control effect against cucumber downy mildew(%): protectant activity
Description: (§1) The method is as followed: The whole plant is used in this test. The compound is dissolved in a proper solvent to get mother solution. The proper solvent is selected from acetone, methanol, DMF and so on according to their dissolving capability to the sample. […] The testing solution is sprayed to the host plant by a special plant sprayer. The plant is inoculated with fungus after 24 hours. According to the infecting characteristic of fungus, the plant is stored in a humidity chamber and then transferred into greenhouse after infection is finished. And the other plants are placed in greenhouse directly.

[2] = tested on: wheat powdery mildew; test: Protectant activity in vivo (whole plant), wheat powdery mildew; settings: protectant activity
Description: as §1

[3] = tested on: diamond back moth; test: Bioactivity test against diamond back moth (airbrush spray); type: in vivo; settings: for control against diamond back moth (mortality): after 72 h
Description: (§2) Compounds were dissolved in mixed solvent (acetone:methanol=1:1), and diluted to required concentration with water containing 0.1% of tween 80.
(§3) Diamond back moth, armyworm, peach aphid and carmine spider mite were used as targets and the method of spraying by airbrush was used for determination of insecticidal bioassays.
The method of spraying by airbrush: The cabbage leaves were made into plates of 2 cm diameter by use of punch. A test solution (0.5 ml) was sprayed by airbrush at the pressure of 0.7 kg/cm^2 to both sides of every plate. 10 Second instar larvae were put into the petri-dishes after the leaf disc air-dried and 3 replicates were set for each treatment. Then the insects were maintained in observation room (25° C., 60˜70% R.H.). Scores were conducted and mortalities were calculated after 72 h.

[4] = tested on: Green peach aphids (Myzus Persicae Sulzer); test: Bioactivity test against green peach aphid (airbrush foliar spray); type: in vivo
Description: as §2, §3
Method: Filter papers were put in culture dishes (Diameter=6 cm), and water was dripped on filter papers for preserving moisture. Green peach aphids (Myzus Persicae Sulzer) were maintained on cabbage. Leaves (Diameter=3 cm) of approximately 15-30 aphids were put in the culture dishes. Bioactivity tests were used the method of Airbrush Foliar Spray, pressure=10 psi (0.7 kg/cm2), spray volume=0.5 mL. The studies were conducted at […] 25±1 C in incubator cabinets with 60±5% RH. Survey the survival aphids after 48 h and calculate the death rates.

[5] = tested on: cucumber anthracnose; test: Protectant activity in vivo (whole plant), cucumber anthracnose; settings: 400 mg/L; protectant activity
Description: as §1

[6] = tested on: carmine spider mite; test: Bioactivity test against carmine spider mite (airbrush spray); type: in vivo; settings: after 72 hrs
Description: as §2, §3
The method: shoots with two true leaves in pot were taken, the healthy adults of carmine spider mite were inoculated to the leaves. The adults were counted and then sprayed with airbrush at the pressure of 0.7 kg/cm^2 and at dose of 0.5 ml. 3 replicates were set for each treatment. And then they were maintained in standard observation room. Scores were conducted and mortalities were calculated after 72 hrs.

[7] = tested on: rice blast; test: microbe, parasite or virus in culture; type: cell-based; settings: for inhibition rate against rice blast: in vitro; for inhibition at 25 ppm: Pyricularia oryzae, read-out: inhibition rate against rice blast, 25 ppm, in vitro
[8] = tested on: cucumber gray mold; test: Fungicidal activity in vitro (96-cell culture board), cucumber gray mold; type: cell-based; settings: read-out: inhibition rate against cucumber gray mold
[9] = tested on: corn rust; test: Protectant activity in vivo (whole plant), corn rust; settings: 1.6 ppm
Description: as §1

[10] = Tetranychus cinnabarinus, 72 h, read-out: control against carmine spider mite (mortality)

CCc1ncnc(NCc2cnn(-c3ccccc3)c2C)c1Cl [CK1, reference compound]
control effect against cucumber downy mildew(%) ([1]; 25 mg/L): 20%
control effect against cucumber downy mildew(%) ([1]; 50 mg/L): 95%
control effect against cucumber downy mildew(%) ([1]; 100 mg/L): 100%
control effect against cucumber downy mildew(%) ([1]; 400 mg/L): 100%
control effect against wheat powdery mildew (%) ([2]; 6.25 mg/L): 0%
control effect against wheat powdery mildew (%) ([2]; 25 mg/L): 40%
control effect against wheat powdery mildew (%) ([2]; 100 mg/L): 60%
control effect against wheat powdery mildew (%) ([2]; 400 mg/L): 100%
Insecticidal activity against diamond back moth (%) ([3]; 600 mg/L): 43%
Insecticidal activity against peach aphid (%) ([4]; 10 mg/L): 0%
Insecticidal activity against peach aphid (%) ([4]; 100 mg/L): 0%
Insecticidal activity against peach aphid (%) ([4]; 600 mg/L): 91%

CCc1ncnc(NCc2cnn(-c3ccccc3)c2C(F)(F)F)c1Cl [CK2, reference compound]
control effect against cucumber downy mildew(%) ([1]; 25 mg/L): 20%
control effect against cucumber downy mildew(%) ([1]; 50 mg/L): 75%
control effect against cucumber downy mildew(%) ([1]; 100 mg/L): 100%
control effect against cucumber downy mildew(%) ([1]; 400 mg/L): 100%
control effect against wheat powdery mildew (%) ([2]; 6.25 mg/L): 0%
control effect against wheat powdery mildew (%) ([2]; 25 mg/L): 20%
control effect against wheat powdery mildew (%) ([2]; 100 mg/L): 50%
control effect against wheat powdery mildew (%) ([2]; 400 mg/L): 100%
Insecticidal activity against diamond back moth (%) ([3]; 600 mg/L): 20%
Insecticidal activity against peach aphid (%) ([4]; 10 mg/L): 0%
Insecticidal activity against peach aphid (%) ([4]; 100 mg/L): 55%
Insecticidal activity against peach aphid (%) ([4]; 600 mg/L): 100%

Cc1nc(C)c(C)c(N(C)Cc2cnn(-c3ccccc3)c2)n1 [CK3, reference compound]
control effect against cucumber downy mildew(%) ([1]; 25 mg/L): 0%
control effect against cucumber downy mildew(%) ([1]; 50 mg/L): 30%
control effect against cucumber downy mildew(%) ([1]; 100 mg/L): 40%
control effect against cucumber downy mildew(%) ([1]; 400 mg/L): 100%
control effect against wheat powdery mildew (%) ([2]; 400 mg/L): 0%
control effect against cucumber anthracnose (%) [5]: 0%
Insecticidal activity against diamond back moth (%) ([3]; 600 mg/L): 0%
Insecticidal activity against peach aphid (%) ([4]; 10 mg/L): 0%
Insecticidal activity against peach aphid (%) ([4]; 100 mg/L): 19%
Insecticidal activity against peach aphid (%) ([4]; 600 mg/L): 77%

Cc1cc(N(C)Cc2cnn(-c3ccccc3)c2)nc(C(C)C)n1 [CK4, reference compound]
control effect against cucumber downy mildew(%) ([1]; 25 mg/L): 0%
control effect against cucumber downy mildew(%) ([1]; 50 mg/L): 40%
control effect against cucumber downy mildew(%) ([1]; 100 mg/L): 50%
control effect against cucumber downy mildew(%) ([1]; 400 mg/L): 100%
control effect against wheat powdery mildew (%) ([2]; 400 mg/L): 0%
control effect against cucumber anthracnose (%) [5]: 0%
Insecticidal activity against diamond back moth (%) ([3]; 600 mg/L): 0%
Insecticidal activity against peach aphid (%) ([4]; 600 mg/L): 0%

Cc1nc(Cl)cc(N(C)Cc2c(C)nn(-c3ccccc3)c2C)n1 [CK5, reference compound]
control effect against cucumber downy mildew(%) ([1]; 400 mg/L): 85%
control effect against wheat powdery mildew (%) ([2]; 400 mg/L): 0%
control effect against cucumber anthracnose (%) [5]: 0%
Insecticidal activity against diamond back moth (%) ([3]; 600 mg/L): 0%
Insecticidal activity against peach aphid (%) ([4]; 10 mg/L): 0%
Insecticidal activity against peach aphid (%) ([4]; 100 mg/L): 22%
Insecticidal activity against peach aphid (%) ([4]; 600 mg/L): 100%

CCc1ncnc(NCCc2cnn(C(C)(C)C)c2)c1Cl [Compound 23]
control effect against wheat powdery mildew (%) ([2]; 100 mg/L): 98%
control effect against wheat powdery mildew (%) ([2]; 400 mg/L): 100%
Insecticidal activity against peach aphid (%) ([4]; 100 mg/L): 94%
Insecticidal activity against peach aphid (%) ([4]; 600 mg/L): 100%
mortality at 100 ppm ([6]; Tetranychus cinnabarinus, 72 h, 100 ppm, read-out: control against carmine spider mite (mortality)): > 80%
mortality at 600 ppm [6, 10]: > 80%

Cc1ncnc(NCCc2cnn(-c3ccccc3)c2)c1Cl [Compound 241]
inhibition rate against rice blast ([7]; 0.1 ppm): 80%
inhibition rate against rice blast ([7]; 0.3 ppm): 80%
inhibition rate against rice blast ([7]; 0.9 ppm): 100%
control effect against cucumber downy mildew(%) ([1]; 12.5 mg/L): 65%
control effect against cucumber downy mildew(%) ([1]; 25 mg/L): 100%
control effect against cucumber downy mildew(%) ([1]; 50 mg/L): 100%
control effect against cucumber downy mildew(%) ([1]; 100 mg/L): 100%
control effect against cucumber downy mildew(%) ([1]; 400 mg/L): 100%
Insecticidal activity against diamond back moth (%) ([3]; 10 mg/L): 29%
Insecticidal activity against diamond back moth (%) ([3]; 100 mg/L): 71%
Insecticidal activity against diamond back moth (%) ([3]; 600 mg/L): 100%
control against diamond back moth (mortality) ([3]; 600 ppm): 100%

CCc1ncnc(NCCc2cnn(-c3ccc(Cl)cc3)c2)c1Cl [Compound 537]
inhibition at 25 ppm [8]: > 80%
control effect against cucumber downy mildew(%) ([1]; 12.5 mg/L): 100%
control effect against cucumber downy mildew(%) ([1]; 25 mg/L): 100%
control effect against cucumber downy mildew(%) ([1]; 50 mg/L): 100%
control effect against cucumber downy mildew(%) ([1]; 100 mg/L): 100%
control effect against cucumber downy mildew(%) ([1]; 400 mg/L): 100%
protectant activity against cucumber downy mildew in vivo ([1]; 6.25 ppm): 98%

FC(F)c1ncnc(NCCc2cnn(-c3ccccc3)c2)c1Cl [Compound 797]
control effect against wheat powdery mildew (%) ([2]; 6.25 mg/L): 60%
control effect against wheat powdery mildew (%) ([2]; 25 mg/L): 100%
control effect against wheat powdery mildew (%) ([2]; 100 mg/L): 100%
control effect against wheat powdery mildew (%) ([2]; 400 mg/L): 100%
Insecticidal activity against diamond back moth (%) ([3]; 10 mg/L): 65%
Insecticidal activity against diamond back moth (%) ([3]; 100 mg/L): 85%
Insecticidal activity against diamond back moth (%) ([3]; 600 mg/L): 100%
control against diamond back moth (mortality) ([3]; 100 ppm): 85%
control against diamond back moth (mortality) ([3]; 600 ppm): 100%

FC(F)c1ncnc(NCCc2cnn(-c3ccc(Cl)cc3Cl)c2)c1Cl [Compound 817]
control effect against wheat powdery mildew (%) ([2]; 6.25 mg/L): 100%
control effect against wheat powdery mildew (%) ([2]; 25 mg/L): 100%
control effect against wheat powdery mildew (%) ([2]; 100 mg/L): 100%
control effect against wheat powdery mildew (%) ([2]; 400 mg/L): 100%
protectant activity against corn rust in vivo [9]: 70%
Insecticidal activity against diamond back moth (%) ([3]; 10 mg/L): 21%
Insecticidal activity against diamond back moth (%) ([3]; 100 mg/L): 70%
Insecticidal activity against diamond back moth (%) ([3]; 600 mg/L): 100%
control against diamond back moth (mortality) ([3]; 600 ppm): 100%
Insecticidal activity against peach aphid (%) ([4]; 100 mg/L): 100%
Insecticidal activity against peach aphid (%) ([4]; 600 mg/L): 100%
control against carmine spider mite (mortality) ([6]; 10 ppm): 72%

FC(F)c1ncnc(NCCc2cnn(-c3ccc(C(F)(F)F)cc3)c2)c1Cl [Compound 865]
control effect against wheat powdery mildew (%) ([2]; 6.25 mg/L): 40%
control effect against wheat powdery mildew (%) ([2]; 25 mg/L): 80%
control effect against wheat powdery mildew (%) ([2]; 100 mg/L): 85%
control effect against wheat powdery mildew (%) ([2]; 400 mg/L): 100%
Insecticidal activity against diamond back moth (%) ([3]; 10 mg/L): 42%
Insecticidal activity against diamond back moth (%) ([3]; 100 mg/L): 50%
Insecticidal activity against diamond back moth (%) ([3]; 600 mg/L): 100%
control against diamond back moth (mortality) ([3]; 600 ppm): 100%

Cc1nc(C)c(Cl)c(NCCc2cnn(-c3ccc(Cl)cc3Cl)c2)n1 [Compound 1373]
inhibition at 25 ppm [7]: > 80%
control effect against cucumber downy mildew(%) ([1]; 12.5 mg/L): 100%
control effect against cucumber downy mildew(%) ([1]; 25 mg/L): 100%
control effect against cucumber downy mildew(%) ([1]; 50 mg/L): 100%
control effect against cucumber downy mildew(%) ([1]; 100 mg/L): 100%
control effect against cucumber downy mildew(%) ([1]; 400 mg/L): 100%
protectant activity against cucumber downy mildew in vivo ([1]; 3.125 ppm): 85%
protectant activity against cucumber downy mildew in vivo ([1]; 6.25 ppm): 95%
mortality at 600 ppm [6, 10]: > 80%

CCc1ncnc(NCCc2cnn(Cc3ccc(Cl)cc3)c2)c1Cl [Compound 5657]
inhibition at 25 ppm [7]: > 80%
inhibition at 25 ppm [8]: > 80%
melting point: 109.9 °C

CCc1ncnc(NCCc2cnn(-c3ccc(Cl)cc3)c2)c1Cl.Cl [Compound 10932]
inhibition at 25 ppm [7]: > 80%
Insecticidal activity against diamond back moth (%) ([3]; 10 mg/L): 25%
Insecticidal activity against diamond back moth (%) ([3]; 100 mg/L): 50%
Insecticidal activity against diamond back moth (%) ([3]; 600 mg/L): 100%
control against diamond back moth (mortality) ([3]; 600 ppm): 100%
mortality at 600 ppm [6, 10]: > 80%

— patent US9682962B2, “Pyrazolyl pyrimidinamine compound and application thereof” (SHENYANG SINOCHEM AGROCHEMICALS R&D CO., LTD., priority 2013, dated 2017)
